Earlier results, collected in paper PMC9395488, “First-in-human study of IM156, a novel potent biguanide oxidative phosphorylation (OXPHOS) inhibitor, in patients with advanced solid tumors” (Investigational New Drugs, 2022).
Read-outs that look alike come from different tables or passages of the source.

Key:
A549 = test system: A549; set-up: method as in ImmunoMet, 2018; conditions: in A549; ref ImmunoMet, 2018; read-out: OXPHOS inhibition IC50; cited from earlier work
[1] = test system: purified complex I membrane from bovine heart; set-up: method as in ImmunoMet, 2018; conditions: ref ImmunoMet, 2018, read-out: mitochondrial OXPHOS inhibition IC50; cited from earlier work
[2] = beagle dogs, ref ImmunoMet, 2018, cited from earlier work

NC(=Nc1ccc(OC(F)(F)F)cc1)N=C(N)N1CCCC1 [IM156]
IC50 (A549): 9 µM
IC50 [1]: 2 µM
accumulation over 27 days ([2]; 20 mg/kg/dose QOD): no apparent accumulation
accumulation over 27 days ([2]; 40 and 80 mg/kg/dose QOD): accumulation
